Experimental findings from PubChem BioAssay (NCI) are described below.

Among the test systems are K-562 leukemia; HCT-15 colon; BT-549 breast; T-47D breast; 786-0 renal; MDA-MB-231 breast; HT29 colon; HOP-62 NSCLC; NCI-H522 lung; RPMI-8226 leukemia.
Common to all, as to assay: inhibition of tumour cell growth, NCI panel, 48 h

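96-well plates; 48 h exposure; 5 concentrations. Endpoints by linear interpolation between flanking doses. Not reached: highest tested concentration assigned. The concentration for 50% growth inhibition is given as GI50. TGI marks complete inhibition of growth.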

For the compound `Cc1ccc([C@]2(C)CC[C@H](C)/C2=C\Br)c(O)c1`, the GI50 was 3300 nM in the assay on K-562 leukemia; 4990 nM with HCT-15 colon; 5.4 µM in the assay with BT-549 breast; 6.45 µM with T-47D breast; 3.59 µM with 786-0 renal; 3.5 µM in the assay on MDA-MB-231 breast. Further, the GI50 with HT29 colon is 2.52 µM; with HOP-62 NSCLC, 4.22 µM; in the assay on NCI-H522 lung, 3.24 µM; in the assay on RPMI-8226 leukemia, 3.21 µM. For the same compound, the TGI in the assay on K-562 leukemia turned out to be 11.1 µM; in the assay on HCT-15 colon it was 33.7 µM; in the assay with BT-549 breast it was 19.3 µM; in the assay on T-47D breast it was 27.9 µM; in the assay on 786-0 renal, 13.4 µM; with MDA-MB-231 breast it was 14.4 µM. Also, the TGI in the assay with HT29 colon stood at 6.65 µM; with HOP-62 NSCLC, 15.7 µM; in the assay with NCI-H522 lung, 12 µM; with RPMI-8226 leukemia, 24.7 µM.
As for `O=c1oc2c(C(F)(F)F)cccc2cc1-c1csc(Nc2ccc(OCCF)cc2)n1`, the GI50 was 34.8 nM in the assay on K-562 leukemia; 38.9 nM in the assay on HCT-15 colon; 0.0387 µM in the assay with BT-549 breast; 0.0797 µM in the assay with T-47D breast; 0.0611 µM in the assay with 786-0 renal; 0.0663 µM in the assay with MDA-MB-231 breast. For the same compound, the GI50 is 0.032 µM in the assay with HT29 colon, 0.0378 µM in the assay on HOP-62 NSCLC, 0.0216 µM in the assay on NCI-H522 lung and 0.0406 µM with RPMI-8226 leukemia. In addition, the TGI with K-562 leukemia is over 100 µM; with HCT-15 colon, over 100 µM; with BT-549 breast, 6.34 µM; in the assay on T-47D breast it was over 100 µM; with MDA-MB-231 breast it was over 35.9 µM; in the assay on HT29 colon it was 1.02 µM. Also, the TGI in the assay on HOP-62 NSCLC is over 36.8 µM; in the assay on NCI-H522 lung, 0.0766 µM; in the assay on RPMI-8226 leukemia, 42.7 µM.
On to `O=C(O)c1cc2ccccc2c2c1C(=O)c1ccccc1-2`, for which the TGI in the assay with K-562 leukemia, with HCT-15 colon, in the assay on BT-549 breast, in the assay on T-47D breast, in the assay on 786-0 renal and with MDA-MB-231 breast was over 100 µM each time. Further, the TGI in the assay on HT29 colon, in the assay with HOP-62 NSCLC, in the assay with NCI-H522 lung and in the assay on RPMI-8226 leukemia was over 100 µM in each case.
For the compound `CCN(c1cc(C#CCN2CCOCC2)cc(C(=O)NCc2c(C)cc(C)[nH]c2=O)c1C)C1CCC(N(C)CCOC)CC1` (centres undefined), the GI50 in the assay on K-562 leukemia is over 100000 nM; with HCT-15 colon, over 100000 nM; in the assay on BT-549 breast, over 100 µM; with T-47D breast, over 100 µM; with 786-0 renal it was over 100 µM; with MDA-MB-231 breast, over 100 µM. The GI50 in the assay with HT29 colon is over 100 µM; with HOP-62 NSCLC, over 100 µM; in the assay with NCI-H522 lung, over 100 µM; in the assay with RPMI-8226 leukemia, 7.13 µM. The TGI in the assay on K-562 leukemia, with HCT-15 colon, with BT-549 breast, in the assay on T-47D breast, in the assay with 786-0 renal and in the assay with MDA-MB-231 breast was over 100 µM in each case. Besides, the TGI in the assay on HT29 colon, in the assay on HOP-62 NSCLC, with NCI-H522 lung and in the assay with RPMI-8226 leukemia was over 100 µM each time.
As for `CC(=O)c1nc2ccccc2n1CC(=O)c1cccc(Cl)c1`, the GI50 with K-562 leukemia was 113 nM; with HCT-15 colon, 246 nM; in the assay with BT-549 breast, 1.12 µM; in the assay on T-47D breast it was 0.881 µM; with 786-0 renal it was 0.886 µM; in the assay with MDA-MB-231 breast it was 1.07 µM. For the same compound, the GI50 is 11.6 µM with HT29 colon, 1.69 µM in the assay with HOP-62 NSCLC, 0.0846 µM in the assay with NCI-H522 lung and 0.255 µM with RPMI-8226 leukemia. Moreover, the TGI was over 44.1 µM with K-562 leukemia; over 100 µM in the assay on HCT-15 colon; over 100 µM in the assay on BT-549 breast; over 100 µM with T-47D breast; over 41.4 µM in the assay on 786-0 renal; over 100 µM with MDA-MB-231 breast. For the same compound, the TGI with HT29 colon is over 100 µM; in the assay on HOP-62 NSCLC, over 56.5 µM; with NCI-H522 lung it was 0.719 µM; in the assay on RPMI-8226 leukemia, 14.3 µM.
With `Cc1c([N+](=O)[O-])oc2ccc3ccccc3c12`, the TGI with K-562 leukemia, in the assay on HCT-15 colon, with BT-549 breast, with T-47D breast, in the assay with 786-0 renal and in the assay with MDA-MB-231 breast was over 100 µM in each case. The TGI with HT29 colon is over 100 µM; in the assay with HOP-62 NSCLC, over 100 µM; in the assay on NCI-H522 lung, 41.9 µM; in the assay on RPMI-8226 leukemia, over 100 µM.
`O=Nc1c(-c2c(O)[nH]c3ccc(Br)cc23)[nH]c2ccccc12`: the GI50 is 2000 nM with K-562 leukemia; 2720 nM with HCT-15 colon; 4.57 µM in the assay with BT-549 breast; 12.1 µM in the assay with T-47D breast; 3.25 µM with 786-0 renal; 3.55 µM in the assay with MDA-MB-231 breast. Besides, the GI50 in the assay on HT29 colon was 8.3 µM; with HOP-62 NSCLC, 4.4 µM; in the assay on NCI-H522 lung, 3.35 µM; in the assay on RPMI-8226 leukemia, 3.56 µM. In addition, the TGI was 4.87 µM in the assay with K-562 leukemia; 8.4 µM in the assay with HCT-15 colon; 20.2 µM in the assay with BT-549 breast; over 100 µM in the assay on T-47D breast; 14.1 µM in the assay with 786-0 renal; 21.8 µM in the assay on MDA-MB-231 breast. In addition, the TGI with HT29 colon was over 100 µM; in the assay with HOP-62 NSCLC, 13.8 µM; in the assay with NCI-H522 lung it was 47.6 µM; in the assay with RPMI-8226 leukemia, 25.5 µM.
Consider `O=C(NC(=S)Nc1cc(Cl)ccc1O)c1cccc(Br)c1`, for which the GI50 in the assay with K-562 leukemia is 4940 nM; in the assay with HCT-15 colon, 4780 nM; with BT-549 breast, 62.9 µM; in the assay with T-47D breast, 3.71 µM; in the assay on 786-0 renal, 38 µM; in the assay with MDA-MB-231 breast, 17 µM. For the same compound, the GI50 in the assay on HT29 colon was 69.3 µM; with HOP-62 NSCLC, 7.46 µM; in the assay on NCI-H522 lung it was 6.65 µM; in the assay with RPMI-8226 leukemia it was 4.15 µM. Further, the TGI in the assay with K-562 leukemia, in the assay with HCT-15 colon, with BT-549 breast, in the assay on T-47D breast, in the assay on 786-0 renal and in the assay with MDA-MB-231 breast was over 100 µM in each case. The TGI in the assay on HT29 colon, in the assay on HOP-62 NSCLC, in the assay with NCI-H522 lung and with RPMI-8226 leukemia was over 100 µM in each case.
In the case of `O=C(O)C(Oc1nc(=S)[nH]c(=S)[nH]1)(c1ccc(Cl)cc1)c1ccc(Cl)cc1`, the TGI in the assay on K-562 leukemia, with HCT-15 colon, in the assay on BT-549 breast, with T-47D breast, with 786-0 renal and with MDA-MB-231 breast was over 100 µM each time. Moreover, the TGI in the assay with HT29 colon, in the assay with HOP-62 NSCLC, in the assay on NCI-H522 lung and in the assay on RPMI-8226 leukemia was over 100 µM throughout.
`Cc1ccc(Sc2cc3c(oc2=O)-c2ccccc2OC3O)cc1` (centres undefined): the GI50 with K-562 leukemia is 27700 nM; in the assay with HCT-15 colon, 28300 nM; in the assay on BT-549 breast, 18.7 µM; in the assay on T-47D breast it was 24.8 µM; with 786-0 renal, 24.3 µM; with MDA-MB-231 breast, 28.8 µM. The GI50 with HT29 colon is 30.9 µM; in the assay on HOP-62 NSCLC it was 22.5 µM; in the assay on NCI-H522 lung, 18.1 µM; in the assay with RPMI-8226 leukemia, 23.2 µM. In addition, the TGI in the assay with K-562 leukemia is over 100 µM; in the assay on HCT-15 colon, 76.3 µM; in the assay on BT-549 breast, 37.4 µM; in the assay on T-47D breast, 81.2 µM; in the assay with 786-0 renal it was 51.6 µM; in the assay with MDA-MB-231 breast, 71.2 µM. For the same compound, the TGI is over 100 µM in the assay on HT29 colon, 44.7 µM with HOP-62 NSCLC, 38.8 µM with NCI-H522 lung and 79.7 µM in the assay with RPMI-8226 leukemia.
With `CC(C)=CCCC(C)C1=C(O)C(=O)C(C)=CC1=O` (centres undefined), the TGI came to 4.37 µM in the assay on K-562 leukemia; 5.75 µM in the assay on HCT-15 colon; 30.2 µM with BT-549 breast; 3.92 µM in the assay on T-47D breast; 26.9 µM in the assay with 786-0 renal; 7.94 µM in the assay on MDA-MB-231 breast. For the same compound, the TGI in the assay with HT29 colon was over 64 µM; in the assay on HOP-62 NSCLC it was 36.9 µM; with NCI-H522 lung, 4.48 µM; with RPMI-8226 leukemia, over 100 µM.
Regarding `O=C1OCC2=C1C(c1ccccc1)c1cc3c(cc1N2CCO)OCCO3` (centres undefined), the GI50 with K-562 leukemia was 191 nM; in the assay on HCT-15 colon, 518 nM; in the assay with BT-549 breast, 0.465 µM; in the assay with T-47D breast, 0.22 µM; with 786-0 renal, 0.288 µM; in the assay on MDA-MB-231 breast, 1.14 µM. The GI50 in the assay with HT29 colon is 0.168 µM; in the assay on HOP-62 NSCLC, 0.763 µM; in the assay on NCI-H522 lung it was 0.0593 µM; in the assay on RPMI-8226 leukemia it was 0.392 µM. Besides, the TGI in the assay with K-562 leukemia is over 50 µM; in the assay on HCT-15 colon, over 50 µM; with BT-549 breast it was over 13.7 µM; with T-47D breast it was over 50 µM; in the assay with 786-0 renal, over 50 µM; in the assay on MDA-MB-231 breast, 11.5 µM. For the same compound, the TGI with HT29 colon is 1.61 µM; with HOP-62 NSCLC, over 50 µM; in the assay with NCI-H522 lung, 0.165 µM; in the assay with RPMI-8226 leukemia, over 50 µM.
On to `Cc1coc2c1C(OC(=O)C(C)C)C1(C)C(C)CCC(O)C1C2=O` (centres undefined), for which the TGI is over 100 µM in the assay on K-562 leukemia; over 100 µM in the assay on HCT-15 colon; over 95 µM in the assay with BT-549 breast; over 100 µM with T-47D breast; over 100 µM in the assay on 786-0 renal; over 100 µM in the assay with MDA-MB-231 breast. In addition, the TGI in the assay on HT29 colon, with HOP-62 NSCLC, with NCI-H522 lung and in the assay on RPMI-8226 leukemia was over 100 µM in each case.
